Laboratory results published in US20220079944A1, “2H-INDAZOLE DERIVATIVES AS THERAPEUTIC AGENTS FOR BRAIN CANCERS AND BRAIN METASTASES” (BETA PHARMA, INC., priority 2019, published 2022).
Like-named read-outs stand apart in the source and are kept apart here.

Tests used:
[1] = Brain concentration and brain/plasma ratio in mouse after 10 mg/kg p.o.; assay type: in vivo; settings: for concentration at 2 h / concentration at 4 h / concentration at 8 h / concentration at 24 h: po, 10 mg/kg
[2] = molecular target: T1, P-gp (Homo sapiens, UniProt P08183); assay: P-gp substrate potential using MDR1-MDCK monolayers (bidirectional permeability +/- valspodar); assay type: in vitro ADME
T1 construct: expressed in transfected cells; host or cells: MDR1-MDCK (MDCK cells expressing MDR1)
Method: The objective of this study was to determine the P-gp substrate potential of one test article using MDR1-MDCK monolayers.
Each determination was performed in duplicate. […] Analytical conditions are outlined in Appendix 1.
Papp=(dCr/dt)×Vr/(A×CA) (1)
Percent Recovery=100×((Vr×Cr^final)+(Vd×Cd^final))/(Vd×CN) (2) • where • dC/dt is the slope of the cumulative concentration in the receiver compartment versus time in μM s^−1; • Vr is the volume of the receiver compartment in cm^3; • Vd is the volume of the donor compartment in cm^3; • A is the area of the insert (1.13 cm^2 for 12-well); • CA is the average of the nominal dosing concentration and the measured 120 minute donor concentration in μM; • CN is the nominal concentration of the dosing solution in μM; • Cr^final is the cumulative receiver concentration in μM at the end of the incubation period; • Cd^final is the concentration of the donor in μM at the end of the incubation period.
Efflux ratio (ER) is defined as Papp (B-to-A)/Papp (A-to-B).

[3] = test system: orthotopic U87MG-luc human glioblastoma; assay: Efficacy in combination with temozolomide against orthotopic U87MG-luc human glioblastoma in mice (bioluminescence); assay type: in vivo; settings: glioblastoma model, combination with TMZ
Method: An efficacy and comparison study between Compound 1 and abemaciclib, in combination with temozolomide (TMZ), against orthotopic U87MG-luc human glioblastoma in mice was conducted. In each study, TMZ was dosed PO at 6 mg/kg, QD×5, and either Compound 1 or abemaciclib was dosed PO at 100 mg/kg. Tumor growth was observed by bioluminescence. […] From a broad perspective, the significant differentiation between Compound 1 and abemaciclib in a brain disease model can be traced to their distinct molecular structures. Female Envigo Nude Mice (Hsd:Athymic Nude-Fox1^nu) were used in this study. They were 6-7 weeks old on Day 1 of the experiment. The animals were fed irradiated Harlan 2918.15 Rodent Diet and water ad libitum. Animals were housed in INNOVIVE® disposable ventilated caging with corn cob bedding inside BIOBUBBLE® Clean Rooms that provide H.E.P.A filtered air into the bubble environment at 100 complete air changes per hour. All treatments, body weight determinations, and tumor measurements were carried out in the bubble environment. […] An aliquot of the homogeneous cell suspension was diluted in a trypan blue solution and counted using a Luna automated cell counter. […] Following implantation, an aliquot of the remaining cells was diluted with a trypan blue solution and counted to determine the post-implantation cell viability. […]

[4] = brain, PO 10 mg/kg, individual animal R1, read-out: Brain Concentration, R1 + 3n
[5] = brain, PO 10 mg/kg, individual animal R2, read-out: Brain Concentration, R2 + 3n
[6] = brain, PO 10 mg/kg, individual animal R3, read-out: Brain Concentration, R3 + 3n
[7] = brain, PO 10 mg/kg, mean, read-out: Brain Concentration, Mean PO
[8] = plasma, PO 10 mg/kg, individual animal R1, read-out: Plasma Concentration, R1 + 3n
[9] = plasma, PO 10 mg/kg, individual animal R2, read-out: Plasma Concentration, R2 + 3n
[10] = plasma, PO 10 mg/kg, individual animal R3, read-out: Plasma Concentration, R3 + 3n
[11] = plasma, PO 10 mg/kg, mean, read-out: Plasma Concentration, Mean PO

T1 sequence (P08183 whole entry): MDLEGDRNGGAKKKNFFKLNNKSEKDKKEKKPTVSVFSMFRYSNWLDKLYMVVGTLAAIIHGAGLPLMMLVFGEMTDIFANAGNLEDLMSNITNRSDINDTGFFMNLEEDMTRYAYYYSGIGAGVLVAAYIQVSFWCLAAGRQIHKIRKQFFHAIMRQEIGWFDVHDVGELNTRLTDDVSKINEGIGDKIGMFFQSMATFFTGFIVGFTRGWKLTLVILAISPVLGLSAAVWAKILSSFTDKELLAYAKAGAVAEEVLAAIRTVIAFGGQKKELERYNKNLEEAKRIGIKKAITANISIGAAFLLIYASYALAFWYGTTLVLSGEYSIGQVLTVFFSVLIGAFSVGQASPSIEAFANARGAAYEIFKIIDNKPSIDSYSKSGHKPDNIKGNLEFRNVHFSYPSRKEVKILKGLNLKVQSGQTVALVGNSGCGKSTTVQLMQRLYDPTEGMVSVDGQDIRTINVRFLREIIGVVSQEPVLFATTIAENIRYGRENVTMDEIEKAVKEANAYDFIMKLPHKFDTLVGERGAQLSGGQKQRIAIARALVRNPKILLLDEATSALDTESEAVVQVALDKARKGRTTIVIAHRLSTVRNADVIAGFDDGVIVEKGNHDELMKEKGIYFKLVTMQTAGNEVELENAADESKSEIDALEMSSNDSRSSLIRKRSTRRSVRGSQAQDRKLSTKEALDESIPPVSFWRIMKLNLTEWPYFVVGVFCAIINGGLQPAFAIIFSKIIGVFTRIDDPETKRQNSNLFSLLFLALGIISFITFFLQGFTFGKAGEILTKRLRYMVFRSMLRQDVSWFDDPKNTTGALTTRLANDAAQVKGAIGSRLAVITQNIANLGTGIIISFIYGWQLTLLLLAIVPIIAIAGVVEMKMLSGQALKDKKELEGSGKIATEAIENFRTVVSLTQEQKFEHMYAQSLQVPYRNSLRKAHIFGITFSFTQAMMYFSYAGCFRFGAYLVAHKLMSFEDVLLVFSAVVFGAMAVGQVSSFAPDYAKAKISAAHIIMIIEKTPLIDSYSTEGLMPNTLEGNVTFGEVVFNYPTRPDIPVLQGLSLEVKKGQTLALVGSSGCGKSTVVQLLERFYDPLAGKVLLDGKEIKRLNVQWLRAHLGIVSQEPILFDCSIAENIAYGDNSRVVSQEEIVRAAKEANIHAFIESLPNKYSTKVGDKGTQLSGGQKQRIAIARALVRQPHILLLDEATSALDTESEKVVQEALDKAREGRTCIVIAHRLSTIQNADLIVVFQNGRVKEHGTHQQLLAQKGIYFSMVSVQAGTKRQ

Brain concentration relative to that of abemaciclib ([1]; 10 mg/kg p.o., higher than abemaciclib): approximately 3 fold
Kp ([1]; PO 10 mg/kg, brain AUC0-last / plasma AUC0-last, read-out: AUC0-last Ratio, brain/plasma (B/P) ratio): 1.43
Brain AUC0-last ([1]; PO 10 mg/kg, brain, from mean concentrations): 11966 ng·h/g
AUC(0-t) ([1]; PO 10 mg/kg, plasma, from mean concentrations, read-out: Plasma AUC0-last): 8380 ng·h/mL
concentration at 2 h [1, 4]: 954 ng/g
concentration at 2 h [1, 5]: 630 ng/g
concentration at 2 h [1, 6]: 1100 ng/g
concentration at 2 h [1, 7]: 894 ng/g
concentration at 4 h [1, 4]: 1190 ng/g
concentration at 4 h [1, 5]: 1060 ng/g
concentration at 4 h [1, 6]: 1220 ng/g
concentration at 4 h [1, 7]: 1160 ng/g
concentration at 8 h [1, 4]: 1150 ng/g
concentration at 8 h [1, 5]: 1380 ng/g
concentration at 8 h [1, 6]: 1220 ng/g
concentration at 8 h [1, 7]: 1250 ng/g
concentration at 24 h [1, 4]: 9.06 ng/g
concentration at 24 h [1, 5]: 8.64 ng/g
concentration at 24 h [1, 6]: 15.8 ng/g
concentration at 24 h [1, 7]: 11.2 ng/g
concentration at 2 h [1, 8]: 833 ng/mL
concentration at 2 h [1, 9]: 500 ng/mL
concentration at 2 h [1, 10]: 748 ng/mL
concentration at 2 h [1, 11]: 694 ng/mL
concentration at 4 h [1, 8]: 669 ng/mL
concentration at 4 h [1, 9]: 543 ng/mL
concentration at 4 h [1, 10]: 1180 ng/mL
concentration at 4 h [1, 11]: 797 ng/mL
concentration at 8 h [1, 8]: 868 ng/mL
concentration at 8 h [1, 9]: 1030 ng/mL
concentration at 8 h [1, 10]: 722 ng/mL
concentration at 8 h [1, 11]: 873 ng/mL
concentration at 24 h [1, 8]: 4.36 ng/mL
concentration at 24 h [1, 9]: 5.3 ng/mL
concentration at 24 h [1, 10]: 10.6 ng/mL
concentration at 24 h [1, 11]: 6.75 ng/mL
P-gp substrate ([2]; MDR1-MDCK monolayers, conclusion in words): not a substrate for P-gp
recovery at 120 min, 5 μM ([2]; dog, MDCK-MDR1, pH 7.4, MDR1-MDCK, 5 μM, A-to-B, without valspodar): 22%
Papp A→B at 120 min, 5 μM ([2]; dog, MDCK-MDR1, pH 7.4, MDR1-MDCK, 5 μM, A-to-B, without valspodar, average, read-out: Papp AVG): 5.34 ×10⁻⁶ cm/s
Papp A→B at 120 min, 5 μM ([2]; dog, MDCK-MDR1, pH 7.4, MDR1-MDCK, 5 μM, A-to-B, without valspodar, replicate R1, read-out: Papp R1): 5.25 ×10⁻⁶ cm/s
Papp A→B at 120 min, 5 μM ([2]; dog, MDCK-MDR1, pH 7.4, MDR1-MDCK, 5 μM, A-to-B, without valspodar, replicate R2, read-out: Papp R2): 5.43 ×10⁻⁶ cm/s
recovery at 120 min, 5 μM ([2]; dog, MDCK-MDR1, pH 7.4, MDR1-MDCK, 5 μM, B-to-A, without valspodar): 51%
Papp B→A at 120 min, 5 μM ([2]; dog, MDCK-MDR1, pH 7.4, MDR1-MDCK, 5 μM, B-to-A, without valspodar, average, read-out: Papp AVG): 7.77 ×10⁻⁶ cm/s
Papp B→A at 120 min, 5 μM ([2]; dog, MDCK-MDR1, pH 7.4, MDR1-MDCK, 5 μM, B-to-A, without valspodar, replicate R1, read-out: Papp R1): 7.14 ×10⁻⁶ cm/s
Papp B→A at 120 min, 5 μM ([2]; dog, MDCK-MDR1, pH 7.4, MDR1-MDCK, 5 μM, B-to-A, without valspodar, replicate R2, read-out: Papp R2): 8.4 ×10⁻⁶ cm/s
recovery at 120 min, 5 μM ([2]; dog, MDCK-MDR1, pH 7.4, with valspodar 1 μM, MDR1-MDCK, 5 μM, A-to-B, + 1 μM Valspodar): 19%
recovery at 120 min, 5 μM ([2]; dog, MDCK-MDR1, pH 7.4, with valspodar 1 μM, MDR1-MDCK, 5 μM, B-to-A, + 1 μM Valspodar): 63%
efflux ratio at 120 min, 5 μM ([2]; dog, pH 7.4, MDR1-MDCK, Papp (B-to-A)/Papp (A-to-B), without valspodar): 1.5
SMILES: CCN1CCN(Cc2ccc(Nc3ncc(F)c(-c4ccc5nn(C)c(C(C)C)c5c4)n3)nc2)CC1 [Compound 1, N-(5-((4-ethylpiperazin-1-yl)methyl)pyridin-2-yl)-5-fluoro-4-(3-isopropyl-2-methyl-2H-indazol-5-yl)pyrimidin-2-amine]
P-gp Substrate Classification ([2]; MDR1-MDCK, 5 μM, +/− 1 μM valspodar): Negative (ER≥2.0 without valspodar, and reduced by <50% with valspodar: Negative)
In vivo efficacy relative to abemaciclib [3]: superior in vivo efficacy
